Assay results taken from ChEMBL document CHEMBL3044672, “N9- and N7-(Chloromethyl Phenymethyl)Chloropurine Derivatives from , '-Dichloroxylenes: Synthesis and Anticancer Activity” (2005).

Tests used:
Assay type in all cases: functional
NCI-H460 = experiment: Cytotoxicity against Homo sapiens (human) NCI-H460 cells after 48 hr by sulforhodamine B assay; details: NCI-H460, 48 h; for CC50: read-out: LC50 (the source's name)
SF-268 = experiment: Cytotoxicity against Homo sapiens (human) SF268 cells assessed as cell growth at 10^-4 M after 48 hr by […] assay; details: SF-268, 48 h, read-out: Activity
TK-10 = experiment: Cytotoxicity against Homo sapiens (human) TK10 cells after 48 hr by sulforhodamine B assay; details: TK-10, 48 h; for CC50: read-out: LC50 (the source's name)
SW-620 = experiment: Cytotoxicity against Homo sapiens (human) SW620 cells after 48 hr by sulforhodamine B assay; details: SW-620, 48 h; for CC50: read-out: LC50 (the source's name)
HT-29 = experiment: Cytotoxicity against Homo sapiens (human) HT-29 cells after 48 hr by sulforhodamine B assay; details: HT-29, 48 h; for CC50: read-out: LC50 (the source's name)
NCI-H322M = experiment: Cytotoxicity against Homo sapiens (human) NCI-H322M cells after 48 hr by sulforhodamine B assay; details: for CC50: read-out: LC50 (the source's name)
Hs-578T = experiment: Cytotoxicity against Homo sapiens (human) Hs 578T cells after 48 hr by sulforhodamine B assay
MDA-MB-231 = experiment: Cytotoxicity against Homo sapiens (human) MDA-MB-231 cells after 48 hr by sulforhodamine B assay; details: MDA-MB-231, 48 h
IGROV-1 = experiment: Cytotoxicity against Homo sapiens (human) IGROV1 cells after 48 hr by sulforhodamine B assay; details: IGROV-1, 48 h
HOP-62 = experiment: Cytotoxicity against Homo sapiens (human) HOP62 cells after 48 hr by sulforhodamine B assay; details: HOP-62, 48 h; for CC50: read-out: LC50 (the source's name)
RPMI-8226 = experiment: Cytotoxicity against Homo sapiens (human) RPMI8226 cells after 48 hr by sulforhodamine B assay; details: RPMI-8226, 48 h; for CC50: read-out: LC50 (the source's name)
OVCAR-3 = experiment: Cytotoxicity against Homo sapiens (human) OVCAR3 cells after 48 hr by sulforhodamine B assay; details: OVCAR-3, 48 h
KM12 = experiment: Cytotoxicity against Homo sapiens (human) KM12 cells after 48 hr by sulforhodamine B assay; details: KM12, 48 h; for CC50: read-out: LC50 (the source's name)
EKVX = experiment: Cytotoxicity against Homo sapiens (human) EKVX cells after 48 hr by sulforhodamine B assay; details: for CC50: read-out: LC50 (the source's name)
SK-OV-3 = experiment: Cytotoxicity against Homo sapiens (human) SKOV3 cells after 48 hr by sulforhodamine B assay; details: SK-OV-3, 48 h
COLO 205 = experiment: Cytotoxicity against Homo sapiens (human) COLO205 cells after 48 hr by sulforhodamine B assay; details: COLO 205, 48 h; for CC50: read-out: LC50 (the source's name)
T47D = experiment: Cytotoxicity against Homo sapiens (human) T47D cells after 48 hr by sulforhodamine B assay
MCF7 = experiment: Cytotoxicity against Homo sapiens (human) MCF7 cells after 48 hr by sulforhodamine B assay; details: MCF7, 48 h
SF-295 = experiment: Cytotoxicity against Homo sapiens (human) SF295 cells after 48 hr by sulforhodamine B assay; details: SF-295, 48 h; for CC50: read-out: LC50 (the source's name)
SK-MEL-5 = experiment: Cytotoxicity against Homo sapiens (human) SK-MEL-5 cells after 48 hr by sulforhodamine B assay; details: SK-MEL-5, 48 h
RXF 393 = experiment: Cytotoxicity against Homo sapiens (human) RXF393 cells after 48 hr by sulforhodamine B assay; details: RXF 393, 48 h
PC-3 = experiment: Cytotoxicity against Homo sapiens (human) PC3 cells after 48 hr by sulforhodamine B assay; details: PC-3, 48 h
SK-MEL-2 = experiment: Cytotoxicity against Homo sapiens (human) SK-MEL-2 cells after 48 hr by sulforhodamine B assay; details: SK-MEL-2, 48 h
MDA-MB-435 = experiment: Cytotoxicity against Homo sapiens (human) MDA-MB-435 cells after 48 hr by sulforhodamine B assay; details: MDA-MB-435, 48 h
OVCAR-5 = experiment: Cytotoxicity against Homo sapiens (human) OVCAR5 cells after 48 hr by sulforhodamine B assay; details: OVCAR-5, 48 h; for CC50: read-out: LC50 (the source's name)
HCC 2998 = experiment: Cytotoxicity against Homo sapiens (human) HCC2998 cells after 48 hr by sulforhodamine B assay; details: HCC 2998, 48 h; for CC50: read-out: LC50 (the source's name)
OVCAR-4 = experiment: Cytotoxicity against Homo sapiens (human) OVCAR4 cells after 48 hr by sulforhodamine B assay; details: OVCAR-4, 48 h
SNB-75 = experiment: Cytotoxicity against Homo sapiens (human) SNB75 cells after 48 hr by sulforhodamine B assay; details: SNB-75, 48 h
HCT-116 = experiment: Cytotoxicity against Homo sapiens (human) HCT116 cells after 48 hr by sulforhodamine B assay; details: HCT-116, 48 h
MOLT-4 = experiment: Cytotoxicity against Homo sapiens (human) MOLT4 cells after 48 hr by sulforhodamine B assay; details: MOLT-4, 48 h
DU-145 = experiment: Cytotoxicity against Homo sapiens (human) DU145 cells after 48 hr by sulforhodamine B assay; details: DU-145, 48 h
[1] = read-out: LC50 (the source's name)

With `ClCc1ccc(Cn2cnc3ncnc(Cl)c32)cc1` the GI50 (NCI-H460) was 1.77 µM, the TGI (NCI-H460) was 4.26 µM and the CC50 (NCI-H460) was 17.4 µM. The growth at 100 µM (SF-268) was 1%, the GI50 (TK-10) was 1.47 µM and the TGI (TK-10) was 2.95 µM. For the same molecule, the CC50 (TK-10) was 5.75 µM, the GI50 (SW-620) was 2.57 µM and the TGI (SW-620) was 7.24 µM. For the same molecule, the CC50 (SW-620) was 32.4 µM, the GI50 (HT-29) was 1.23 µM and the TGI (HT-29) was 3.63 µM. The CC50 (HT-29) was 56.2 µM, the GI50 (NCI-H322M) was 1.62 µM and the TGI (NCI-H322M) was 3.01 µM. For the same molecule, the CC50 (NCI-H322M) was 5.62 µM, the GI50 (Hs-578T) was 1.73 µM and the LC50 (Hs-578T) was over 100 µM. For the same molecule, the TGI (Hs-578T) was 4.26 µM, the GI50 (MDA-MB-231) was 1.77 µM and the LC50 (MDA-MB-231) was 6.3 µM. For the same molecule, the TGI (MDA-MB-231) was 3.38 µM, the GI50 (IGROV-1) was 7.58 µM and the LC50 (IGROV-1) was over 100 µM. The TGI (IGROV-1) was 30.9 µM, the GI50 (HOP-62) was 1.77 µM and the TGI (HOP-62) was 3.16 µM. It also gave a CC50 (HOP-62) of 5.62 µM, a GI50 (RPMI-8226) of 1.28 µM and a TGI (RPMI-8226) of 2.69 µM. It also gave a CC50 (RPMI-8226) of 5.62 µM, a GI50 (OVCAR-3) of 1.81 µM and an LC50 (OVCAR-3) of 6.3 µM. For the same molecule, the TGI (OVCAR-3) was 3.38 µM, the GI50 (KM12) was 1.65 µM and the TGI (KM12) was 3.38 µM. It also gave a CC50 (KM12) of 7.07 µM, a GI50 (EKVX) of 2.23 µM and a TGI (EKVX) of 4.46 µM. The CC50 (EKVX) was 8.7 µM, the GI50 (SK-OV-3) was 11.2 µM and the LC50 (SK-OV-3) was 47.9 µM. The TGI (SK-OV-3) was 23.4 µM, the GI50 (COLO 205) was 1.9 µM and the TGI (COLO 205) was 3.8 µM. The CC50 (COLO 205) was 7.41 µM, the GI50 (T47D) was 1.28 µM and the LC50 (T47D) was 6.3 µM. For the same molecule, the TGI (T47D) was 2.88 µM, the GI50 (MCF7) was 1.34 µM and the LC50 (concentration killing 50% of cells) (MCF7) was 6.45 µM. For the same molecule, the TGI (MCF7) was 2.95 µM, the GI50 (SF-295) was 2.04 µM and the TGI (SF-295) was 5.01 µM. The CC50 (SF-295) was 17 µM, the GI50 (SK-MEL-5) was 2.81 µM and the LC50 (SK-MEL-5) was 34.7 µM. It also gave a TGI (SK-MEL-5) of 12 µM, a GI50 (RXF 393) of 1.65 µM and a TGI (RXF 393) of 4.16 µM. The CC50 (RXF 393; [1]) was 12 µM, the GI50 (PC-3) was 1.58 µM and the LC50 (concentration causing 50% cell kill) (PC-3) was 5.37 µM. It also gave a TGI (PC-3) of 2.95 µM, a GI50 (SK-MEL-2) of 6.3 µM and an LC50 (concentration killing 50% of cells) (SK-MEL-2) of over 100 µM. For the same molecule, the TGI (SK-MEL-2) was over 100 µM, the GI50 (MDA-MB-435) was 5.88 µM and the LC50 (MDA-MB-435) was 46.8 µM. It also gave a TGI (MDA-MB-435) of 19.1 µM, a GI50 (OVCAR-5) of 6.3 µM and a TGI (OVCAR-5) of 19.5 µM. For the same molecule, the CC50 (OVCAR-5) was 45.7 µM, the GI50 (HCC 2998) was 1.41 µM and the TGI (HCC 2998) was 2.88 µM. The CC50 (HCC 2998) was 5.75 µM.

Molecule `Nc1nc(Cl)c2ncn(Cc3ccccc3CCl)c2n1` has an LC50 (concentration killing 50% of cells) (OVCAR-4) of 50.1 µM, a TGI (OVCAR-4) of 6.46 µM and a TGI (NCI-H460) of 37.1 µM. It also gave a CC50 (NCI-H460) of over 100 µM, a growth at 100 µM (SF-268) of 67% and a TGI (TK-10) of 36.3 µM. For the same molecule, the CC50 (TK-10) was 75.9 µM, the TGI (SW-620) was 11.8 µM and the CC50 (SW-620) was over 100 µM. It also gave a TGI (SNB-75) of 23.5 µM, a CC50 (SNB-75; [1]) of 64.6 µM and a TGI (HT-29) of 19.1 µM. For the same molecule, the CC50 (HT-29) was over 100 µM, the TGI (NCI-H322M) was 29.5 µM and the CC50 (NCI-H322M) was 69.2 µM. The LC50 (Hs-578T) was over 100 µM, the TGI (Hs-578T) was 77.6 µM and the LC50 (MDA-MB-231) was 63.1 µM. For the same molecule, the TGI (MDA-MB-231) was 9.55 µM, the LC50 (IGROV-1) was over 100 µM and the TGI (IGROV-1) was over 100 µM. It also gave a TGI (HOP-62) of 61.7 µM, a CC50 (HOP-62) of over 100 µM and a TGI (HCT-116) of over 100 µM. It also gave a CC50 (HCT-116; [1]) of over 100 µM, a TGI (MOLT-4) of over 100 µM and a CC50 (MOLT-4; [1]) of over 100 µM. It also gave a TGI (RPMI-8226) of over 100 µM, a CC50 (RPMI-8226) of over 100 µM and an LC50 (OVCAR-3) of 46.8 µM. It also gave a TGI (OVCAR-3) of 20 µM, a TGI (KM12) of 38.9 µM and a CC50 (KM12) of 97.2 µM. For the same molecule, the TGI (EKVX) was 30.9 µM, the CC50 (EKVX) was 60.3 µM and the LC50 (SK-OV-3) was over 100 µM. The TGI (SK-OV-3) was 52.5 µM, the LC50 (DU-145) was 70.8 µM and the TGI (DU-145) was 32.4 µM. The TGI (COLO 205) was over 100 µM, the CC50 (COLO 205) was over 100 µM and the LC50 (T47D) was over 100 µM. It also gave a TGI (T47D) of 83.2 µM, an LC50 (concentration killing 50% of cells) (MCF7) of 87.1 µM and a TGI (MCF7) of 24.6 µM. The TGI (SF-295) was 23.4 µM, the CC50 (SF-295) was 63.1 µM and the LC50 (SK-MEL-5) was 75.9 µM. For the same molecule, the TGI (SK-MEL-5) was 26.3 µM, the LC50 (concentration causing 50% cell kill) (PC-3) was over 100 µM and the TGI (PC-3) was 67.6 µM. For the same molecule, the LC50 (concentration killing 50% of cells) (SK-MEL-2) was over 100 µM, the TGI (SK-MEL-2) was 81.3 µM and the LC50 (MDA-MB-435) was over 100 µM. It also gave a TGI (MDA-MB-435) of 26.9 µM, a TGI (OVCAR-5) of 39.8 µM and a CC50 (OVCAR-5) of 79.4 µM. It also gave a TGI (HCC 2998) of 6.61 µM and a CC50 (HCC 2998) of 26.3 µM.
